How the values were obtained:
[1] = biological target: T1, Alpha-1D adrenergic receptor (Homo sapiens, UniProt P25100); experiment: Displacement of [3H] prazosin from human recombinant adrenergic alpha-1d receptor expressed in HEK293 cells assessed as inhibition constant incubated for 60 mins by spectrophotometric analysis; type: cell-based
T1 sequence (P25100 whole entry): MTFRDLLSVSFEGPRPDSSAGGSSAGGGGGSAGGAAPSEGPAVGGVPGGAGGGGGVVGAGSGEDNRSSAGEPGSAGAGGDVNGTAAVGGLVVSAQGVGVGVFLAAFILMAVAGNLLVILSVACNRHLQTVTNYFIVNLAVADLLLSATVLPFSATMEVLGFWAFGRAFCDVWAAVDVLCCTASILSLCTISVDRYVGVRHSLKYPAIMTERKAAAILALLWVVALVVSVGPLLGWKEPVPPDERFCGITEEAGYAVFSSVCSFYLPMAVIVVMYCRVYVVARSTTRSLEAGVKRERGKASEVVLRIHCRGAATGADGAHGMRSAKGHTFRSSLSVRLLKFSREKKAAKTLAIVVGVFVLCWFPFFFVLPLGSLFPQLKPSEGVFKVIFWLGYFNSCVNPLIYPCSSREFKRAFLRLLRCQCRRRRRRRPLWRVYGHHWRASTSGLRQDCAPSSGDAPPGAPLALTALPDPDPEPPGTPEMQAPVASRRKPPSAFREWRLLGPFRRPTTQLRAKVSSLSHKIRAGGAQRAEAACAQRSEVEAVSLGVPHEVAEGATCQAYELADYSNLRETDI

[2] = Plasma protein binding in human assessed as unbound fraction by rapid equilibrium dialysis analysis; type: ADME, cell-free
[3] = biological target: T2, 5-hydroxytryptamine receptor 1B (Homo sapiens, UniProt P28222); experiment: Displacement of [3H] GR125743 from human recombinant 5-HT1B receptor expressed in […] cells incubated for 90 mins by spectrophotometric analysis; type: cell-based
T2 sequence (P28222 whole entry): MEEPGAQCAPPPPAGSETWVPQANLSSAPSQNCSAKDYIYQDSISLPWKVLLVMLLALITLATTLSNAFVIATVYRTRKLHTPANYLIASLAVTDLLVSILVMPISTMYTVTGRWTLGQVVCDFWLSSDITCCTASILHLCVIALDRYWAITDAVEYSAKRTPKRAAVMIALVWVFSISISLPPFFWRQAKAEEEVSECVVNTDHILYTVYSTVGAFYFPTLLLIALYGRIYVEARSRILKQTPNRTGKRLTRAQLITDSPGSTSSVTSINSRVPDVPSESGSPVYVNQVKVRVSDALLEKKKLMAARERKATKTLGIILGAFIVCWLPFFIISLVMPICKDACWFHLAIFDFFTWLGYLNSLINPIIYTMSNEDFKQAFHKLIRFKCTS

[4] = Metabolic stability in human hepatocytes assessed as half life measured per million cells incubated upto 60 mins by LC-MS/MS analysis; type: ADME, cell-based, Hepatocyte
[5] = Metabolic stability in human liver mitochondrial fraction assessed as mean half life measured per million cells incubated upto 60 mins by LC-MS/MS analysis; type: ADME, mitochondria, Mitochondria
[6] = biological target: Neuronal acetylcholine receptor; alpha3/beta4 (Homo sapiens, UniProt P30926+P32297); experiment: Displacement of [125I]-epibatidine from human recombinant nAChR alpha3beta4 receptor expressed in CHO-K1 cells assessed as inhibition constant incubated for 60 mins by spectrophotometric analysis; type: cell-based
Neuronal acetylcholine receptor; alpha3/beta4, sequence (P30926 whole entry): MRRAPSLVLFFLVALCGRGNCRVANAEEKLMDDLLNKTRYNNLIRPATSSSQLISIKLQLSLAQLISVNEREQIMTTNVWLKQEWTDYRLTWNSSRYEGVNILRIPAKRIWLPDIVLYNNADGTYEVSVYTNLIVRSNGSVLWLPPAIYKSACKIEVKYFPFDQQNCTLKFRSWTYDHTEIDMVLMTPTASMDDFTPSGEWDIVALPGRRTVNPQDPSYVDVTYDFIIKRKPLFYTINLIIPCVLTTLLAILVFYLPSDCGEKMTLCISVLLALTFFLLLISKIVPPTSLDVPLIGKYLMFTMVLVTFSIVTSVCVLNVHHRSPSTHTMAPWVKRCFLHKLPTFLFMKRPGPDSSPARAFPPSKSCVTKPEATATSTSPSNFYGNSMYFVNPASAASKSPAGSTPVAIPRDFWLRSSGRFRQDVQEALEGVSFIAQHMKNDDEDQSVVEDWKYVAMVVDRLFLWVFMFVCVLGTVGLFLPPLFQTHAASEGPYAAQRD
Neuronal acetylcholine receptor; alpha3/beta4, sequence (P32297 whole entry): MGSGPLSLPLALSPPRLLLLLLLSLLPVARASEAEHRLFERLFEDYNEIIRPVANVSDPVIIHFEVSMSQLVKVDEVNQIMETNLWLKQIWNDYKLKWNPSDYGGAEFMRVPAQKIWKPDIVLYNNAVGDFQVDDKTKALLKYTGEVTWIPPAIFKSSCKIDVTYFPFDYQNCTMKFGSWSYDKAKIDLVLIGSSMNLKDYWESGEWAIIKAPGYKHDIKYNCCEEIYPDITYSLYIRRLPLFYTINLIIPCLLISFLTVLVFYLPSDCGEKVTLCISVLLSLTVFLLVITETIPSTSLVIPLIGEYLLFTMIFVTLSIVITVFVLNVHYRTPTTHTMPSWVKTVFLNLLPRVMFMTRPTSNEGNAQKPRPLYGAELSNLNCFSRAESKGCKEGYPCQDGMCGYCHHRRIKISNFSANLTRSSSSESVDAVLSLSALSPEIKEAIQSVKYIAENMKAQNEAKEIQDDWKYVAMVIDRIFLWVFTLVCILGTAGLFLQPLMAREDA

[7] = biological target: T3, Alpha-1A adrenergic receptor (Homo sapiens, UniProt P35348); experiment: Displacement of [3H] prazosin from human recombinant adrenergic alpha-1a receptor expressed in […] cells assessed as inhibition constant incubated for 60 mins by spectrophotometric analysis; type: cell-based
T3 sequence (P35348 whole entry): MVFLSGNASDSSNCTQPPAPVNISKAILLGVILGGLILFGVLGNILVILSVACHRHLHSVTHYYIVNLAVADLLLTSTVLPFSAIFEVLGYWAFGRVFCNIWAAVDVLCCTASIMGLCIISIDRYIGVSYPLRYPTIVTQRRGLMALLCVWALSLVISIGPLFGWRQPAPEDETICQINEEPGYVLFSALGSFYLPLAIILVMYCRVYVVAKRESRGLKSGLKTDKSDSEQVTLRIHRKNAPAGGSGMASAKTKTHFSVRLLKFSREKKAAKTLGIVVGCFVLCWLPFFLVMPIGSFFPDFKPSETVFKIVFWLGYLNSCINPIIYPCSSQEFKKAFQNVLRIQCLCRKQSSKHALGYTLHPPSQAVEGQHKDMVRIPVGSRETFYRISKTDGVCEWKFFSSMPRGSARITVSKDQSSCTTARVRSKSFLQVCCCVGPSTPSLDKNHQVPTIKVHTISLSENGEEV

[8] = biological target: T4, 5-hydroxytryptamine receptor 2A (Homo sapiens, UniProt P28223); experiment: Displacement of [3H] ketanserin from human recombinant 5-HT2A receptor expressed in CHO-K1 cells assessed as inhibition constant incubated for 60 mins by spectrophotometric analysis
T4 sequence (P28223 whole entry): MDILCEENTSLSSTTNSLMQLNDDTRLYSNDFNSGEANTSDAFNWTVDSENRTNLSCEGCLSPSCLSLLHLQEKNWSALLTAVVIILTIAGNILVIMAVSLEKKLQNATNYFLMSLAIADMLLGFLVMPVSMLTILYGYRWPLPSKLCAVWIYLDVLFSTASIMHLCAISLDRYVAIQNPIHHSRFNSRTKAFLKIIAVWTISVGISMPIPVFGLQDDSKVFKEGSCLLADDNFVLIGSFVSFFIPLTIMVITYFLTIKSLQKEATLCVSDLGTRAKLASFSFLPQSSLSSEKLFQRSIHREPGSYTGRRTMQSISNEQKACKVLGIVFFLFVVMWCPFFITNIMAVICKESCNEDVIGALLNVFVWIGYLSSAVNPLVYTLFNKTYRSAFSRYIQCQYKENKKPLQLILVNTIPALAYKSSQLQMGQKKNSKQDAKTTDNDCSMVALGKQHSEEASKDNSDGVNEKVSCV

[9] = biological target: T4, 5-hydroxytryptamine receptor 2A; experiment: Displacement of [3H] ketanserin from human recombinant 5-HT2A receptor expressed in CHO-K1 cells incubated for 60 mins by spectrophotometric analysis
[10] = biological target: T2, 5-hydroxytryptamine receptor 1B; experiment: Displacement of [3H] GR125743 from human recombinant 5-HT1B receptor expressed in […] cells assessed as inhibition constant incubated for 90 mins by spectrophotometric analysis; type: cell-based
[11] = biological target: T5, 5-hydroxytryptamine receptor 5A (Homo sapiens, UniProt P47898); experiment: Displacement of [3H] LSD from human recombinant 5-HT5A receptor expressed in CHO-K1 cells assessed as inhibition constant incubated for 60 mins by spectrophotometric analysis; type: cell-based
T5 sequence (P47898 whole entry): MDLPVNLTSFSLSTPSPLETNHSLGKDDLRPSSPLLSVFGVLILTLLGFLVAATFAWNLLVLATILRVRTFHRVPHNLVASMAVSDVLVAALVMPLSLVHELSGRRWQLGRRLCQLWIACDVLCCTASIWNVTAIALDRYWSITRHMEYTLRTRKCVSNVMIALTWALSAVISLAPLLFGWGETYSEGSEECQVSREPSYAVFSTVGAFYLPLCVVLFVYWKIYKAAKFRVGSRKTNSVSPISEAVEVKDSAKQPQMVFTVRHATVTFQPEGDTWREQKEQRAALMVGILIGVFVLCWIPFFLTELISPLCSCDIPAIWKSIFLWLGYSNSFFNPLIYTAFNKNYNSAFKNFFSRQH

[12] = Distribution coefficient, mean logD of compound at pH 7.4 in octanol and aqueous solution incubated for 95 mins under shaking condition by LC-MS/MS analysis; type: physicochemical
[13] = Metabolic stability in human liver mitochondrial fraction assessed as mean intrinsic clearance measured per million cells incubated upto 60 mins by LC-MS/MS analysis; type: ADME, mitochondria, Mitochondria; conditions: 1 h
[14] = biological target: Amine oxidase [flavin-containing] A (Homo sapiens, UniProt P21397); experiment: Inhibition of human recombinant MAO-A expressed in insect cells assessed as inhibition of 4-hydroxyquinoline formation using kynuramine as substrate incubated for 75 mins by spectrophotometric analysis; set-up: species or system Insect cell
Amine oxidase [flavin-containing] A, sequence (P21397 whole entry): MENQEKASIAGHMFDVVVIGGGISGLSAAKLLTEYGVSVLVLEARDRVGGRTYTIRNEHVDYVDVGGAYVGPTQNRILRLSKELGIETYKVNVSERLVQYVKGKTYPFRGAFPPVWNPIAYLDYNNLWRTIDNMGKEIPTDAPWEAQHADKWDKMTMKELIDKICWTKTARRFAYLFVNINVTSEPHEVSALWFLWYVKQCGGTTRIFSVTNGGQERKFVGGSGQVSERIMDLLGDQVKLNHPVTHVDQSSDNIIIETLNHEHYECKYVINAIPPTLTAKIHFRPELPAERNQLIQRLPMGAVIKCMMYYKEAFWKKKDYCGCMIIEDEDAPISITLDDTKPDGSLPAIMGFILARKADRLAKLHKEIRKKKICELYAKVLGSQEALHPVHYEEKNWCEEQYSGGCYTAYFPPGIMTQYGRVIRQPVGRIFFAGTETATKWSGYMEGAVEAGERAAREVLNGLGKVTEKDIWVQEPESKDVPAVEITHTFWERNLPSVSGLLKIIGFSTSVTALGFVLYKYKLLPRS

[15] = biological target: T5, 5-hydroxytryptamine receptor 5A; experiment: Displacement of [3H] LSD from human recombinant 5-HT5A receptor expressed in CHO-K1 cells incubated for 60 mins by spectrophotometric analysis; type: cell-based
[16] = biological target: T6, Alpha-1B adrenergic receptor (Homo sapiens, UniProt P35368); experiment: Displacement of [3H] prazosin from human recombinant adrenergic alpha-1b receptor expressed in […] cells assessed as inhibition constant incubated for 60 mins by spectrophotometric analysis; type: cell-based
T6 sequence (P35368 whole entry): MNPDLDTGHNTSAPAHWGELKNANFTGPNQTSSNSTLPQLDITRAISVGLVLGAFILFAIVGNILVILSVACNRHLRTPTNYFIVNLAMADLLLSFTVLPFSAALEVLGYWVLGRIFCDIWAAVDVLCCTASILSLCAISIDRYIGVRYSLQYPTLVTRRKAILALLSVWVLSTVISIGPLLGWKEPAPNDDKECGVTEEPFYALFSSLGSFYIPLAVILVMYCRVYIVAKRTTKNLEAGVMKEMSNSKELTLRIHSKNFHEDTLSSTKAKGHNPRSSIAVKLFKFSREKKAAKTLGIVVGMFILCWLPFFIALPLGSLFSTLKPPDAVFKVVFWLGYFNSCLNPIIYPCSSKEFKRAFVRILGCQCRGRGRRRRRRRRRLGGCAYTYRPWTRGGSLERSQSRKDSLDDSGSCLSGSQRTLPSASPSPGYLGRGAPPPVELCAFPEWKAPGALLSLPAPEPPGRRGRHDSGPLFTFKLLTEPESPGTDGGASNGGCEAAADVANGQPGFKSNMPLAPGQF

[17] = Displacement of [3H] idazoxan from imidazoline receptor 2 (unknown origin) assessed as inhibition constant by spectrophotometric analysis; set-up: species or system Homo sapiens
[18] = biological target: Histamine H1 receptor (Homo sapiens) (UniProt P35367); experiment: Displacement of [3H] pyrilamine from human recombinant histamine H1 receptor expressed in CHO-K1 cells at 10 uM incubated for 180 mins by spectrophotometric analysis relative to control; type: cell-based
Histamine H1 receptor (Homo sapiens), sequence (P35367 whole entry): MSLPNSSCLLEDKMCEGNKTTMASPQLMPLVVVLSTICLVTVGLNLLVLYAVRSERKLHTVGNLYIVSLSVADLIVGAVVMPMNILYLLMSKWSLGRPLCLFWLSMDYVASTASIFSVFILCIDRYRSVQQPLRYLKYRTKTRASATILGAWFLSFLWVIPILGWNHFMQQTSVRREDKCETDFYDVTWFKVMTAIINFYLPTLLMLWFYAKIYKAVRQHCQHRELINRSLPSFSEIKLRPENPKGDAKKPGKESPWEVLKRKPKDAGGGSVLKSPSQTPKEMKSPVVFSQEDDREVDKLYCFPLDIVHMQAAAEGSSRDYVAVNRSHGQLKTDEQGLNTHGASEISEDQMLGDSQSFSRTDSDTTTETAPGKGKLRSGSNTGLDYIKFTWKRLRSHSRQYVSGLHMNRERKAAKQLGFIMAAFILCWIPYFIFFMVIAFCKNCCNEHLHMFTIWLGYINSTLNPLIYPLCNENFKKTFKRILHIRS

**Q.** For `O=C(O)/C=C/C(=O)O.[2H]C([2H])(Cc1c[nH]c2ccccc12)N(C)C`, which Ki [1] is on record?
**A.** 1.6 µM

**Q.** And the fraction unbound [2]?
**A.** 0.7

**Q.** And the IC50 [3]?
**A.** 1.99 µM

**Q.** And the half-life [4]?
**A.** 3.72 h

**Q.** And the half-life [5]?
**A.** 1.42 h

**Q.** And the Ki [6]?
**A.** 3.18 µM

**Q.** What about the Ki [7] of the same compound?
**A.** 0.48 µM

**Q.** What about the Ki [8] of the same compound?
**A.** 0.06 µM

**Q.** What about the IC50 [9] of the same compound?
**A.** 0.22 µM

**Q.** What about the Ki [10] of the same compound?
**A.** 1.52 µM

**Q.** And the Ki [11]?
**A.** 1.71 µM

**Q.** And the logD at 1.583 h [12]?
**A.** 0.11

**Q.** And the CLH [13]?
**A.** 16.5 µL/min

**Q.** And the IC50 [14]?
**A.** 1.5 µM

**Q.** And the IC50 [15]?
**A.** 3.32 µM

**Q.** And the Ki [16]?
**A.** 0.37 µM

**Q.** And the Ki [17]?
**A.** 1.73 µM

**Q.** What does the source list for `CN(C)CCc1c[nH]c2ccccc12.O=C(O)/C=C/C(=O)O`?
**A.** Ki [1]: 1.51 µM; fraction unbound [2]: 0.68; IC50 [3]: 2.42 µM; half-life [4]: 3.17 h; half-life [5]: 0.138 h; Ki [6]: 3.03 µM; Ki [7]: 0.28 µM; Ki [8]: 0.04 µM; IC50 [9]: 0.15 µM; Ki [10]: 1.84 µM; Ki [11]: 1.71 µM; inhibition [18]: 88.8%; inhibition ([18]; tested as the 2H-labelled form): 91.4%; logD at 1.583 h [12]: 0.15; CLH [13]: 168 µL/min; IC50 [14]: 1.18 µM; IC50 [15]: 3.32 µM; Ki [16]: 0.26 µM; Ki [17]: 1.29 µM
